Assay results reported in patent publication US7906507B2, “Oxadiazoanthracene compounds for the treatment of diabetes” (TransTech Pharma, Inc., priority 2008, dated 2011).

Assays:
[1] = target: T1, cloned human GLP-1 receptor (Homo sapiens, UniProt P43220); assay: Functional cell-based assay: cAMP functional assay; conditions: for Emax: 0.5 h, percentage relative to maximal GLP-1-induced cAMP accumulation, na = not active in the assay, read-out: % activation
T1 construct: expressed in transfected cells; host or cells: CHO or HEK-293 cells
Outline: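 Monolayer cells incubated 30 min at 37 °C with compounds (0.0001–100 μM) in IMDM containing 100 μM RO 20-1724 PDE inhibitor, 0.1% BSA and 2% DMSO. cAMP measured by HTRF.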

human GLP-1 receptor = target: T2, human GLP-1 receptor (Homo sapiens, UniProt P43220); assay: Receptor binding assay: [125I]GLP-1 (aa 7-36) equilibrium radioligand binding; conditions: membranes from HEK-293 or CHO cells expressing the human GLP-1 receptor; room temp 120 min
T2 construct: expressed in transfected cells; host or cells: HEK-293 or CHO cells (membranes)
Method: Reactions were carried out in 96-well plates. Compound was diluted in 20% DMSO/water. The final assay concentration ranging from 0.1 nM to 100 uM in 2% final DMSO concentration was used. […] Plates were washed 5 times with cold 25 mM Tris-HCL, pH 7.5 containing 0.05% bovine serum albumin (BSA). Following filtration, 50 uL of Microscint PS (Packard part no. 6013631) was added, plates were sealed with TopSeal-A adhesive seals (Packard part no. 6005185). ^125I isotope bound to the Unifilter-96 GF/C plates was counted using a TopCount instrument (Packard).
Percent inhibition of [^125I] […] The IC50 values were calculated by fitting the data using parameters for a sigmoidal dose response, variable slope nonlinear regression (GraphPAD Prizm, San Diego, Calif.) according to the equation: Y=Bottom+(Top-Bottom)/(1+10^((Log EC50−X)*HillSlope)) wherein, X is the logarithm of concentration and Y is the response, and Y starts at Bottom and goes to Top with a sigmoid shape. This is identical to the four parameter logistic equation.

T1 sequence (P43220 24-463): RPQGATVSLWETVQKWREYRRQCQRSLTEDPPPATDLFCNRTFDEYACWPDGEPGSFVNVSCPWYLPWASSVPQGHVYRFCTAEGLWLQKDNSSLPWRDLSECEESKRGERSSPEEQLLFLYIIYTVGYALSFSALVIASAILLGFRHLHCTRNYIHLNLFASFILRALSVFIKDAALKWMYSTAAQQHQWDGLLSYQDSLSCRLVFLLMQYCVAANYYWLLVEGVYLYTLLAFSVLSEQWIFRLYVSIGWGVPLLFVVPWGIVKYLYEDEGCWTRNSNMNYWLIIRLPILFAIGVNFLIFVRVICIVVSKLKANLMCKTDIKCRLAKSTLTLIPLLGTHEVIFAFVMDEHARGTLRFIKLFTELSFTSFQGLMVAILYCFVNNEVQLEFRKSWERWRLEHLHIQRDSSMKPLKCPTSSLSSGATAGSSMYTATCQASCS
T2 sequence (P43220 24-463): as above

| Structure (SMILES) | EC50 [1] [nM] | Emax [1] [%] | % binding vs [125I]GLP-1 (human GLP-1 receptor) [%] |
| --- | --- | --- | --- |
| N#Cc1ccc(-c2ccc(C[C@H](NC(=O)[C@@H]3Cc4cc5c(cc4CN3Cc3ccccn3)OC(c3ccc(OCc4ccc(Cl)c(Cl)c4)cc3)C(=O)N5)C(=O)O)cc2)cc1 (stereo partly drawn) [Example 39, (S)-3-(4′-Cyano-biphenyl-4-yl)-2-({(S)-3-[4-(3,4-dichloro-benzyloxy)-phenyl]-2-oxo-6-pyridin-2-ylmethyl-2,3,5,6,7,8-hexahydro-1H-4-oxa-1,6-diaza-anthracene-7-carbonyl}-amino)-propionic acid] | 130 | 56 | 60 |
| CC[C@H](c1ccccc1)N1Cc2cc3c(cc2C[C@H]1C(=O)N[C@@H](Cc1ccc(-c2ccc(C#N)cc2)cc1)C(=O)O)N(C)C(=O)[C@H](c1ccc(OCc2ccc(Cl)c(Cl)c2)cc1)O3 [Example 88, (S)-3-(4′-Cyano-biphenyl-4-yl)-2-{[(3S,7S)-3-[4-(3,4-dichloro-benzyloxy)-phenyl]-1-methyl-2-oxo-6-((R)-1-phenyl-propyl)-2,3,5,6,7,8-hexahydro-1H-4-oxa-1,6-diaza-anthracene-7-carbonyl]-amino}-propionic acid] |  |  | 60 |
| O=C1Nc2cc3c(cc2OC1c1ccc(OCc2ccc(Cl)c(Cl)c2)cc1)CN(C(=O)c1ccccc1)[C@H](C(=O)N[C@@H](Cc1ccc(Oc2ccncc2)cc1)C(=O)O)C3 (stereo partly drawn) [Example 99, (S)-2-({(S)-6-Benzoyl-3-[4-(3,4-dichloro-benzyloxy)-phenyl]-2-oxo-2,3,5,6,7,8-hexahydro-1H-4-oxa-1,6-diaza-anthracene-7-carbonyl}-amino)-3-[4-(pyridin-4-yloxy)-phenyl]-propionic acid] | 1000 | 28 |  |

More lines, now with the values ahead:

| EC50 [1] [nM] | Emax [1] [%] | % binding vs [125I]GLP-1 (human GLP-1 receptor) [%] | Structure (SMILES) |
| --- | --- | --- | --- |
| 145 | 99.6 | 68 | N#Cc1ccc(-c2ccc(C[C@H](NC(=O)[C@@H]3Cc4cc5c(cc4CN3C(=O)c3ccccc3)OC(c3ccc(OCc4ccc(Cl)c(Cl)c4)cc3)C(=O)N5)C(=O)O)cc2)cc1 (stereo partly drawn) [Example 15, (S)-2-({(S)-6-Benzoyl-3-[4-(3,4-dichloro-benzyloxy)-phenyl]-2-oxo-2,3,5,6,7,8-hexahydro-1H-4-oxa-1,6-diaza-anthracene-7-carbonyl}-amino)-3-(4′-cyano-biphenyl-4-yl)-propionic acid] |
|  |  | 44 | CC[C@H](c1ccccc1)N1Cc2cc3c(cc2C[C@H]1C(=O)N[C@@H](Cc1ccc(-c2ccc(C#N)cc2)cc1)C(=O)O)N(C)C(=O)[C@@H](c1ccc(OCc2ccc(Cl)c(Cl)c2)cc1)O3 [Example 89] |
| 364 | 49 | 65 | CC[C@@H](c1ccccc1)N1Cc2cc3c(cc2C[C@H]1C(=O)N[C@@H](Cc1ccc(-c2ccc(F)cc2)cc1)C(=O)O)N(C)C(=O)[C@H](c1ccc(OCc2ccc(Cl)c(Cl)c2)cc1)O3 [Example 95, (S)-2-{[(3S,7S)-3-[4-(3,4-Dichloro-benzyloxy)-phenyl]-1-methyl-2-oxo-6-((S)-1-phenyl-propyl)-2,3,5,6,7,8-hexahydro-1H-4-oxa-1,6-diaza-anthracene-7-carbonyl]-amino}-3-(4′-fluoro-biphenyl-4-yl)-propionic acid] |
